Assays:
Epac2(B) = biological target: T1, Epac2(B) (Homo sapiens, UniProt Q8WZA2); assay: In vitro GEF activity (initial velocity of GDP exchange on Rap1A) of Epac2(B); type: biochemical
T1 construct: Human Epac2(B) (amino acids 283-1011) lacks the first 283 amino acids of Epac2; made in house; host or cells: Escherichia coli Rosetta 2(DE3)
T1 sequence (Q8WZA2 283-1011): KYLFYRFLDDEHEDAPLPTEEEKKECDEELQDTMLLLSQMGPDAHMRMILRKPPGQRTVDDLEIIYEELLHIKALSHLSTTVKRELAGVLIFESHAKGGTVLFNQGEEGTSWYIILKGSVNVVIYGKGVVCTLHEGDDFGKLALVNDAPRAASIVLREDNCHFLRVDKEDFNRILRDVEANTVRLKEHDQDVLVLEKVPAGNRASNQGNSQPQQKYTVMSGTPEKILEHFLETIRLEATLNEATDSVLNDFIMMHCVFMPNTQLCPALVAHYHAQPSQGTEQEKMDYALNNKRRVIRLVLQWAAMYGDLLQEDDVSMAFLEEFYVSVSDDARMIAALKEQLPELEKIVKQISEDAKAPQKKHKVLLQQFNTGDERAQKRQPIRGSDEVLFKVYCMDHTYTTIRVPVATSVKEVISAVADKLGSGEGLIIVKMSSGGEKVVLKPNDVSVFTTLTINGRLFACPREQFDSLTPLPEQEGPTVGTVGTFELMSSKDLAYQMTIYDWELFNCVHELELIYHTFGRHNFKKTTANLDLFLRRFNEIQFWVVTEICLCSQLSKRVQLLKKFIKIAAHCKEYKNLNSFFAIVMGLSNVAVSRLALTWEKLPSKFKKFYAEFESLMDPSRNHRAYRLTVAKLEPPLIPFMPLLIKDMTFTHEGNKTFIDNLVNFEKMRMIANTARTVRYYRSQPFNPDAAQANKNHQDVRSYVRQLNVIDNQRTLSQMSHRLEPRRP
Description: Human Epac2(AB) (amino acids 43-1011) carries both the CNB-A and the CNB-B domains. Human Epac2(B) (amino acids 283-1011) lacks the first 283 amino acids of Epac2. It is therefore deleted of its CNB-A and DEP domains, but retains the CNB-B domain and the full catalytic region. Epac2(AB) was obtained by HindIII/NotI restriction and Epac2(B) was obtained by Ssp1/Not1 restriction of a human Epac2A cDNA (a gift from Ann M Graybiel, Department of Brain and Cognitive Sciences, MIT, Cambridge). Both cDNA fragments were inserted into pET41a (Novagen), expressed in Escherichia coli Rosetta 2(DE3) (Novagen), and the GST-tagged fusion proteins were purified by nickel-nitrilotriacetic acid beads (Qiagen), as described in D. Courilleau, et al., Identification of a tetrahydroquinoline analog as a pharmacological inhibitor of the cAMP-binding protein Epac, J. Biol. Chem. 287 (2012) 44192-44202).
In vitro GDP exchange catalyzed by Epac was measured using purified recombinant Epac isoforms and Rap1A loaded with Bodipy-GDP, as described in D. Courilleau, et al (above mentioned). The GEF activity of Epac proteins was initiated by injection of the agonist. Stock solutions of CE3F4 and its analogs (12 mM in 100% DMSO) were kept at −20° C. and were diluted in assay buffer (0.67% final DMSO concentration) just before use for GDP exchange assays. The release of Bodipy-GDP was measured in real time as the decay of fluorescence. A single exponential was fit to the time-course data using the Graphpad Prism program. The initial velocity (Vi) of GDP exchange on Rap1 was calculated as described in D. Courilleau et al.).
Data are expressed as mean±S.D. Differences in quantitative variables were examined by unpaired one- or two-tailed Student's t test. EC50 and IC50 values were computed according to a four-parameters dose-response model and compared on the basis of the extra sum-of square F test, using Graphpad Prism. Two-tailed Wilcoxon matched-pair signed rank tests were performed using GraphPad Prism.

[1] = tested on: Epac1-induced Rap1 activation in HEK293 cells; assay: Epac1-induced Rap1 activation, Rap1-GTP pull-down in HEK293 cells; type: cell-based; conditions: 10 min
Method: HEK293 cells were transfected with either pcDNA3 control vector or Epac1 (see FIG. 2A).
HEK293 cells were transfected with Epac1 and 24 h after transfection, cells were preincubated or not with CE3F4 for 30 min and were then treated or not with Sp-007 (10 μM) for 10 min (see FIG. 2B).
HEK293 cells overexpressing β1AR (Beta-1 adrenergic receptors) and transfected with Epac1 were pretreated or not with CE3F4 and stimulated or not with Iso (10 μM) for 10 min (see FIG. 2C).
Amounts of Rap1-GTP were determined by pull-down assays (see Material and Methods). The bar graph represents the mean±S.E.M. of 5 (FIG. 2A, 2B) or 3 (FIG. 2C) independent experiments. Results are expressed as the percentage of unstimulated control cells.
Ras and Rap1 pull-down experiments were performed using a GST fusion protein containing respectively the Ras binding domain of Raf1-RBD and the Rap1 binding domain of Ral-GDS as previously described (Métrich et al., 2008). Cells were starved for 1 h before stimulation in MEM free with penicillin-streptomycin (1%). After stimulation, cells were lysed in RIPA buffer (50 mM Tris-HCl, pH 7.5; 500 mM NaCl; 20 mM MgCl2; 0.5% deoxycholic acid; 0.1% SDS; 1% Triton X-100; 1 mM PMSF; protease and phosphatase inhibitors) and 500 μg of protein were incubated with either GST-Raf1-RBD (for Ras) or Ral-GDS (for Rap1) coupled to glutathione-Sepharose beads (Amersham Biosciences) for 1h at 4° C. Beads were then washed three times in washing buffer (50 mM Tris-HCl, pH 7.5; 150 mM NaCl, 20 mM MgCl2, 1% Triton X-100; 0.1 mM PMSF; protease and phosphatase inhibitors). Rap1-GTP or Ras samples and corresponding total lysates were separated on SDS-PAGE gels and transferred onto a polyvinylidene difluoride (PVDF) membrane (Amersham Pharmacia Biotech).

For `CC1CCc2c(cc(Br)c(F)c2Br)N1C=O` (racemic) [CE3F4], the “Inhibitory effect on GEF activity of Epac2(B), compared with Epac2(AB)” value (Epac2(B); 50 μM racemic CE3F4, agonist 50 μM 007 or 300 μM cAMP, FIG. 6A) was “no significant difference”, the IC50 (Epac2(B); Epac2(B) activated by 300 μM cAMP) was 66 µM and the “Antagonism of cAMP-activated Epac2(B) GEF activity” value (Epac2(B); compound 30 μM, 300 μM cAMP, FIG. 6C) was “stronger antagonist”. For the same molecule, the “Effect on increase in amount of Rap1-GTP following Sp-007 treatment” value ([1]; CE3F4 20 μM, 30 min preincubation, Sp-007 10 μM, HEK293 transfected with Epac1, FIG. 2B) was “prevented the increase” and the “Effect on Epac1-induced Rap1 activation following β1-AR stimulation by isoprenaline” value ([1]; Iso 10 μM, HEK293 overexpressing β1AR, transfected with Epac1, FIG. 2C) was “decreased”.

Reference: US10093627B2, “Tetrahydroquinoline derivatives and their use as Epac inhibitors” (Institut National de la Sante et de la Recherche Medicale …, priority 2012, dated 2018)
